Data on three compounds can be found in paper PMC12384813.

Details of series [1]: method as in PMID 30023392. To be noted: daily cisplatin for 5 days before radiation ref 24; cited from earlier work.
The subject of series [2] is SVG p12 normal glial cells.
Series [3] relates to U87 MG cells. The series can be described thus: cells. The class given is cell-based, human. To be noted: U87 MG. The procedure:
In this procedure, U87 MG (2 × 10^4 cells per well) were seeded in BD falcon transparent 96-well plates and incubated for 24 h.

The target in series [4] is T1, αvβ3 integrins on human GBM (U87 MG) cell (Homo sapiens, UniProt P05106+P06756).
T1 construct: host or cells: U87 MG
The series is described as follows: Competition assay against [^64Cu]Cu-NOTA-c(RGDfK) on U87 MG cells. The class given is binding. The settings on record: in competition to [^64Cu]Cu-NOTA-c(RGDfK), 1 h incubation.

Series [5] relates to SVG p12 cells. The series can be described thus: Internalization of ^64Cu-NOTA conjugates (glycine-HCl wash). It is filed as cell-based, human. The settings on record: Table S2.
For series [6], the system named is SVG p12 cells. The series is described as follows: Cellular uptake of ^64Cu-NOTA conjugates. The settings on record: Table S1. The class given is cell-based, human.
In series [7] the test system is SVG p12 cells. The series is described as follows: Efflux kinetics of ^64Cu-NOTA conjugates. The settings on record: Table S3. It is filed as cell-based, human.
Series [8] is described as follows: Plasma stability by radio-TLC. It is filed as in vitro ADME. The settings on record: 48 h, 37 °C, mouse plasma. As to the method:
To precipitate plasma proteins, the samples were treated twice with ethanol (1:1, v/v), vortexed for 1 min, and centrifuged at 7000 rpm for 10 min. The soluble fraction was separated by ultracentrifugation, and radioactivity was measured. The resulting supernatant was analyzed by radio-TLC on C18 plates. […] Radio-TLC was developed using 0.1 M sodium citrate buffer (pH 5.5), and radiodetection was performed with an Instant Imager system (BioScan, Washington, DC, USA) (Figure S5C). The supernatant fraction was then analyzed using the same methodology described above.

The test system of series [9] is U87 MG cells. The series can be described thus: Efflux kinetics of ^64Cu-NOTA conjugates. It is filed as cell-based, human. The settings on record: Table S3. The procedure: (§1) U87 MG (1 × 10^5 per well) were seeded in corning 24-well plates and cultured in DMEM with 10% FBS at 37 °C. […] For uptake assay, cells were washed with PBS to collect surface-bound and internalized activity, and for internalization assay, glycine-HCl wash was performed to remove surface bound activity. Moreover, cells were harvested, counted, and radioactivity was measured using a gamma counter. Results were expressed as percentage of total activity (%) in counts per min (CPM)/10^6 cells. For efflux studies, U87 MG cells were incubated with the complexes for 1 h, then washed with PBS, and replaced with fresh medium. The retained activity was measured over 0 to 24 h after washing.

Series [10] has as its system U87 MG cells. The series is described as follows: Cellular uptake of ^64Cu-NOTA conjugates. It is filed as cell-based, human. The procedure: as §1
Series [11] deals with U87 MG cells. The series can be described thus: Internalization of ^64Cu-NOTA conjugates (glycine-HCl wash). The class given is cell-based, human. As to the method:
as §1

For series [12], the system named is SVG p12 cells. The series is described as follows: Subcellular localization (nucleus/cytoplasm fractions). The class given is cell-based, human. As to the method: (§2) The nucleus and cytoplasm of U87 MG and SVG p12 cells were extracted following established procedures as previously reported. […] After incubation, cells were washed and incubated on ice with CSK buffer (0.5% Triton X-100, 300 mM sucrose, 100 mM NaCl, 1 mM EDTA, 2 mM MgCl2, and 10 mM HEPES, pH 6.8) for 2 min. After 5 min centrifugation, supernatant containing cytoplasmic extract was collected and transferred in labeled tubes. The resulting pellets were incubated on ice for 2 min with CSK buffer without Triton X-100 to extract the nuclear fraction. The buffer containing the nuclear fraction was collected into separate tubes. The radioactivity in both cytoplasmic and nuclear fractions was measured using a gamma counter (HIDEX Automatic Gamma Counter 2014).

Series [13] relates to U87 MG cells. The description is as above. It is filed as cell-based, human. The procedure: as §2
The next series addresses bovine serum albumin (Bos taurus, UniProt P02769). The series is described as follows: Binding to bovine serum albumin. The class given is in vitro ADME.
Where [14] appears, read: 0.5 h after 1 h incubation and wash.

Like-named read-outs stand apart in the source and are kept apart here.

Turning to `N.N.[Cl][Pt][Cl]` [Cisplatin], the “increase of treatment efficacy compared to radiotherapy alone” value in series [1] is recorded as 35%. The concentration for a half-maximal effect (EC50) stood at 15 ± 5 µM in series [2]; 35 ± 4 µM in series [2] (read-out: EC50 24 h SVG p12, 24 h, SVG p12); 15 ± 7 µM in series [2] (read-out: EC50 48 h SVG p12, 48 h, SVG p12); 90 ± 8 µM in the series on U87 MG cells [3] (24 h, read-out: EC50 24 h U87 MG); 25 ± 6 µM with U87 MG cells [3] (48 h, read-out: EC50 48 h U87 MG); 20 ± 5 µM with U87 MG cells [3] (72 h, read-out: EC50 72 h U87 MG).

In series [4], `N=C(N)NCCC[C@@H]1NC(=O)[C@H](CCCCNC(=O)CNC(=O)COCCOCCNC(=O)CN2CCN(CC(=O)O)CCN(CC(=O)O)CC2)NC(=O)[C@@H](Cc2ccccc2)NC(=O)[C@H](CC(=O)O)NC(=O)CNC1=O` [^natCu-NOTA-c(RGDfK), metal not drawn] came in with an IC50 of 0.0106 ± 0.0032 µM.

In the case of `N=C(N)NCCC[C@@H]1NC(=O)[C@H](CCCCNC(=O)[C@H](CCCCNC(=O)c2cc(-c3ccccn3)nc(-c3ccccn3)c2)NC(=O)COCCOCCNC(=O)CN2CCN(CC(=O)O)CCN(CC(=O)O)CC2)NC(=O)[C@@H](Cc2ccccc2)NC(=O)[C@H](CC(=O)O)NC(=O)CNC1=O` [metal not drawn], in the series on SVG p12 cells [5] (1 h), the “Internalized activity 1h SVG p12” value is recorded as 2.85 ± 0.56 % total activity (CPM) /106 cells. Besides, the “Internalized activity 2h SVG p12” value in the series on SVG p12 cells [5] (2 h) is recorded as 2.46 ± 0.90 % total activity (CPM) /106 cells. Moreover, the “Internalized activity 4h SVG p12” value in the series with SVG p12 cells [5] (4 h) is 2.79 ± 0.38 % total activity (CPM) /106 cells. For the same compound, the “Internalized activity 24h SVG p12” value in the series with SVG p12 cells [5] (24 h) was 7.40 ± 1.43 % total activity (CPM) /106 cells. Besides, the “Internalized activity 48h SVG p12” value in the series with SVG p12 cells [5] (48 h) was 8.21 ± 0.74 % total activity (CPM) /106 cells. The “Uptake 1h SVG p12” value in the series with SVG p12 cells [6] (1 h) is listed as 3.63 ± 0.21 % total activity (CPM) /106 cells. Moreover, the “Uptake 2h SVG p12” value in the series on SVG p12 cells [6] (2 h) is given as 4.96 ± 0.89 % total activity (CPM) /106 cells. In addition, in the series on SVG p12 cells [6] (4 h), the “Uptake 4h SVG p12” value is reported as 5.80 ± 0.49 % total activity (CPM) /106 cells. Moreover, the “Uptake 24h SVG p12” value in the series with SVG p12 cells [6] (24 h) was 10.87 ± 2.17 % total activity (CPM) /106 cells. For the same compound, the “Uptake 48h SVG p12” value in the series with SVG p12 cells [6] (48 h) is 8.38 ± 1.70 % total activity (CPM) /106 cells. In addition, the “Efflux (retained activity) 0.5h SVG p12” value in the series on SVG p12 cells [7] (setting [14]) is reported as 85.25 ± 8.63 % total activity (CPM) /106 cells. Moreover, the “Efflux (retained activity) 1h SVG p12” value in the series on SVG p12 cells [7] (1 h after wash) is given as 75.50 ± 10.93 % total activity (CPM) /106 cells. Besides, the “Efflux (retained activity) 2h SVG p12” value in the series on SVG p12 cells [7] (2 h after wash) is 54.29 ± 8.47 % total activity (CPM) /106 cells. Besides, the “Efflux (retained activity) 4h SVG p12” value in the series with SVG p12 cells [7] (4 h after wash) is recorded as 59.78 ± 2.75 % total activity (CPM) /106 cells. Besides, the “Efflux (retained activity) 24h SVG p12” value with SVG p12 cells [7] (24 h after wash) was 31.32 ± 1.01 % total activity (CPM) /106 cells. For the same compound, the “free ^64Cu in plasma supernatant by radio-TLC” value in [8] is “no detectable free ^64Cu”. Further, the “Efflux (retained activity) 0.5h U87 MG” value with U87 MG cells [9] (setting [14]) is listed as 88.93 ± 9.47 % total activity (CPM) /106 cells. Moreover, the “Efflux (retained activity) 1h U87 MG” value in the series on U87 MG cells [9] (1 h after wash) is 93.32 ± 1.47 % total activity (CPM) /106 cells. Besides, in the series with U87 MG cells [9] (2 h after wash), the “Efflux (retained activity) 2h U87 MG” value is 83.19 ± 4.21 % total activity (CPM) /106 cells. The “Efflux (retained activity) 4h U87 MG” value in the series on U87 MG cells [9] (4 h after wash) is on record as 76.55 ± 2.59 % total activity (CPM) /106 cells. The “Efflux (retained activity) 24h U87 MG” value with U87 MG cells [9] (24 h after wash) is listed as 51.36 ± 2.08 % total activity (CPM) /106 cells. Moreover, the “Uptake 1h U87 MG” value in the series on U87 MG cells [10] (1 h, 37 °C, Table S1) was 6.21 ± 1.58 % total activity (CPM) /106 cells. Also, in the series on U87 MG cells [10] (2 h, Table S1), the “Uptake 2h U87 MG” value was 6.89 ±1.73 % total activity (CPM) /106 cells. Moreover, in the series on U87 MG cells [10] (4 h, Table S1), the “Uptake 4h U87 MG” value is 10.33 ± 1.86 % total activity (CPM) /106 cells. Further, the “uptake in U87 MG cells” value in the series on U87 MG cells [10] (24 h) is 38.8 ± 1.8%. In the series on U87 MG cells [10] (24 h, Table S1), the “Uptake 24h U87 MG” value is reported as 38.76 ± 1.82 % total activity (CPM) /106 cells. Besides, the “uptake relative to [^64Cu]Cu-NOTA-TP” value in the series on U87 MG cells [10] (24 h, U87 MG) is “approximately 1.3 times”. Also, in the series on U87 MG cells [10] (24 h, U87 MG), the “uptake relative to [^64Cu]Cu-NOTA-c(RGDfK)” value is recorded as roughly 2.7 times. In addition, the “Uptake 48h U87 MG” value in the series with U87 MG cells [10] (48 h, Table S1) is recorded as 37.56 ± 1.30 % total activity (CPM) /106 cells. Further, in [2], the “toxicity in normal SVG p12 astrocytes” value is “minimal toxicity”. The “Internalized activity 1h U87 MG” value in the series on U87 MG cells [11] (1 h, Table S2) is recorded as 5.50 ± 0.80 % total activity (CPM) /106 cells. In addition, the internalized fraction in the series on U87 MG cells [11] (1 h, U87 MG) is recorded as 5.5 ± 0.8 % CPM/10^6 cells; in the series on U87 MG cells [11] (24 h, U87 MG), 28.0 ± 1.0 % CPM/10^6 cells. In addition, the “Internalized activity 2h U87 MG” value in the series on U87 MG cells [11] (2 h, Table S2) is listed as 5.67 ± 0.67 % total activity (CPM) /106 cells. The “Internalized activity 4h U87 MG” value in the series with U87 MG cells [11] (4 h, Table S2) was 7.35 ± 1.31 % total activity (CPM) /106 cells. Besides, in the series on U87 MG cells [11] (24 h), the “internalization in U87 MG cells” value was determined as 28.0 ± 1.0%. Besides, the “Internalized activity 24h U87 MG” value in the series with U87 MG cells [11] (24 h, Table S2) is given as 28.03 ± 1.02 % total activity (CPM) /106 cells. Also, the “internalization compared to [^64Cu]Cu-NOTA-TP” value in the series on U87 MG cells [11] (24 h, U87 MG) is “over 1.5 fold”. In addition, the “internalization compared to [^64Cu]Cu-NOTA-c(RGDfK)” value with U87 MG cells [11] (24 h, U87 MG) is on record as “more than 2.4 fold”. Further, the “Internalized activity 48h U87 MG” value with U87 MG cells [11] (48 h, Table S2) was 24.08 ± 1.63 % total activity (CPM) /106 cells. Also, the nuclear uptake in the series with SVG p12 cells [12] (SVG p12, 24 h) worked out at 2.5 ± 0.8%; with SVG p12 cells [12] (SVG p12, 48 h), 0.9 ± 0.2%; in the series on SVG p12 cells [12] (SVG p12, 72 h), 0.9 ± 0.3%; in the series on U87 MG cells [13] (24 h), 6.0 ± 0.5%. Further, the cytoplasmic distribution was found to be 17.4 ± 1.5% with U87 MG cells [13] (24 h), 21.0 ± 0.7% in the series with U87 MG cells [13] (48 h) and 15.4 ± 0.5% in the series with U87 MG cells [13] (72 h). Moreover, in the series with U87 MG cells [3] (24 h, vs ^natCu-NOTA-TP-c(RGDfK)), the “improvement in potency compared to nonradioactive analogue” value is listed as “approximately 2500 fold”. Also, the “binding to bovine serum albumin” value with bovine serum albumin turned out to be 52%.
